Data published in patent publication US7554012B2, “Plants and plant cells exhibiting resistance to AMPA, and methods for making the same” (priority 1998, dated 2009).
Several values for one entry are separate records, joined by “and”; a condition that tells them apart may be missing. Equal entries are not always repeated. Where two headings read alike, the source gives them in different places.

How the values were obtained:
Tobacco callus = Tobacco callus growth on plates with AMPA or N-acetyl AMPA; type: cell-based, Nicotiana tabacum cv. "Samsun"; details: plates with 0.1 mM or 0.4 mM, up to three weeks
Experimental: Tobacco callus was generated from leaf pieces of wild type Nicotiana tabacum cv. “Samsun” tobacco on MS104 plates (MS salts 4.3 g/l, sucrose 30 g/l, B5 vitamins 500X 2 ml/l, NAA 0.1 mg/l, and Bacto Agar […]). Callus tissue was applied to plates with or without AMPA and with or without N-acetyl AMPA. Plates contained AMPA or N-acetyl AMPA at concentrations of 0.1 mM or 0.4 mM. Plates were incubated for up to three weeks and monitored periodically.

E. coli JM101 = experiment: Cell growth in MOPS medium with AMPA; type: cell-based; parameters: key: — indicates no measurable growth; details: 0.2 mM AMPA, growth period 54 hrs
Experimental: (§1) The phn operon is induced when E. coli is grown in media lacking or limited in a phosphate source. Therefore, E. coli GB993 was compared to the parental JM101 strain when grown in MOPS minimal media. GB993 and its mpu− parent strain, JM101, were grown under identical conditions, varying only the amount of phosphate available or supplemented with AMPA. 50 ml cultures were grown in duplicate in 250 ml sidearm-Erlenmeyer flasks with continuous shaking at 37° C. in MOPS medium (5 mls of 10×MOPS salts, 0.5 ml 1 mg/ml thiamin, 0.5 ml 20% glucose, to 50 mls with dH2O) containing 0.1 or 5 mM phosphate, or 0.1 mM phosphate supplemented with approximately 0.2 mM AMPA, pH 7.0. The cultures were generally grown to about 220 Klett units and the cells were pelleted by centrifugation, resuspended in 1.5 mls of 10 mM Tris/1 mM DTT, and lysed with two passes through a French press at […]. Lysates were centrifuged to remove debris and the supernatant passed through a G-50 column equilibrated with 50 mM Tris pH 7.0.

PhnO enzyme = PhnO enzyme (Escherichia coli, UniProt P16691, P2A)
Experimental: The apparent Km (Km) and Vmax (Vmax) of PhnO enzyme were determined for the substrates aminomethlyphosphonate and acetyl-CoA. Determination of the PhnO Km and Vmax were made by endpoint kinetic analyses, determining the enzyme velocity in consuming each substrate at varying substrate concentrations, and plotting the inverse of the enzyme velocity versus the inverse of the substrate concentration to produce a Lineweaver-Burk plot of enzyme kinetics. The conversion of [^14C]-AMPA to N-acetyl-[^14C]-AMPA was monitored as in example 2, using enzyme in a desalted crude lysate of E. coli expressing phnO from pMON15032, produced as in example 4. […] Enzyme reactions were incubated at 37° C. for 5 minutes and quenched with 1 volume of 100 mM sodium acetate (NaOAc), pH 4.4, in ethanol. Samples were analyzed by HPLC to determine the amount of [^14C]-AMPA converted to N-acetyl-[^14C]-AMPA.

E. coli GB993 = experiment: Cell growth in MOPS medium with AMPA; type: cell-based; details: 0.2 mM AMPA, growth period 54 hrs
Experimental: as §1

female gametes = details: under optimal conditions; cited from earlier work
[1] = system: recombinant cotton line 4268 (GOX/PhnO); experiment: [^14C]-glyphosate metabolism in cotton line 4268; type: in vivo, cotton (Gossypium hirsutum L.); details: GOX/PhnO Plants
Experimental: The metabolism of [^14C]-glyphosate in recombinant cotton lines 4268 (GOX/PhnO) and 3753 (EPSPS/GOX) was also studied. Plants in this study were treated as indicated above for cotton line 4416, by applying droplets of ROUNDUP ULTRA fortified with [^14C]-glyphosate to a single leaf on each plant at the three to four leaf stage. Treated leaves were harvested and rinsed with water, then ground and extracted, and extracts were analyzed by HPLC as described above for the presence of [^14C]-glyphosate, [^14C]-AMPA, and N-acetyl-[^14C]-AMPA. New growth, including the meristem and new leaves that emerged following application were also extracted and analyzed.

[2] = [^14C]-glyphosate in growth medium exposed to light
Experimental: Growth medium to which [^14C]-glyphosate was added was treated to the same conditions as wheat plants, ie, the medium was exposed to incident light intensities which plants received.

[3] = system: recombinant cotton line 4416; experiment: [^14C]-glyphosate metabolism in cotton line 4416; type: in vivo, cotton (Gossypium hirsutum L.); details: line 4416 plants; listed as [^14C]-Glyphosate
Experimental: Coker 312 glyphosate resistant recombinant cotton line 4416 was selected as a glyphosate resistant cotton line after transformation with pMON10149, a triple gene Agrobacterium tumefaciens mediated double border plant transformation vector containing chloroplast targeted EPSPS, GOX, and PhnO, each expressed independently from separate 35S promoters. Several 4416 R3 plants were raised from R2 seed. One leaf of each plantlet at the three or four stage was treated with a mixture of ROUNDUP ULTRA™ commercial herbicide mixture (Lot No. GLP-9701-7428-F) which had been fortified with [^14C]-glyphosate (Code No. C-2251). […] The treatment solution consisted of approximately 38 μL containing 1.60×10^6 dpm with a [^14C]-glyphosate specific activity of 1.713×10^3 dpm/μg glyphosate acid. Three or seven days after topical application the treated leaves were rinsed with water, frozen in liquid nitrogen, fractured with a spatula and then ground using a TEKMAR™ tissuemizer in 10 mL of water. The leaf extracts were adjusted to pH 3.5-4.0 with 1N HCl and approximately 4-8000 dpm were analyzed for the presence of [^14C]-metabolites by HPLC with liquid scintillation vial collection and detection (HPLC/LSC) as described in example 2. The new growth including the meristem and new leaves that emerged following topical application were also extracted and analyzed for [^14C]-metabolites.

male gametes = details: under optimal conditions; cited from earlier work
[4] = AMPA substrate 200 nm (nanomoles)

PhnO enzyme, sequence (P16691 whole entry P2A): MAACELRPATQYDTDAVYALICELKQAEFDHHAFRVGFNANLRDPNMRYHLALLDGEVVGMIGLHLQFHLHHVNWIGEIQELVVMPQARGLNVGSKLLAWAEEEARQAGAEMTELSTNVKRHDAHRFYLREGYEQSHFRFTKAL

**Q.** Which “growth of tobacco callus tissue” value (Tobacco callus) does the source give for `NCP(=O)(O)O` [AMPA, N-aminomethyl phosphonic acid] here?
**A.** The value was “severely inhibited”.

**Q.** And the “Harvest Density” value (E. coli JM101)?
**A.** The value was “—”.

**Q.** What about the “% Turnover” value (PhnO enzyme; [4]) of the same molecule?
**A.** Its value is 39.5%.

**Q.** And the Velocity (PhnO enzyme; [4])?
**A.** Its Velocity is 79 nm per minute per mg of protei.

**Q.** And the “% Turnover” value (PhnO enzyme; AMPA substrate 400 nm)?
**A.** Its value is 35.1%.

**Q.** And the Velocity (PhnO enzyme; AMPA substrate 400 nm)?
**A.** Its Velocity is 140 nm per minute per mg of protei.

**Q.** What about the “% Turnover” value (PhnO enzyme; AMPA substrate 800 nm) of the same molecule?
**A.** Its value is 32.9%.

**Q.** And the Velocity (PhnO enzyme; AMPA substrate 800 nm)?
**A.** The Velocity was 263 nm per minute per mg of protei.

**Q.** And the “% Turnover” value (PhnO enzyme; AMPA substrate 1200 nm)?
**A.** Its value is 26.8%.

**Q.** And the Velocity (PhnO enzyme; AMPA substrate 1200 nm)?
**A.** Its Velocity is 322 nm per minute per mg of protei.

**Q.** What about the “% Turnover” value (PhnO enzyme; AMPA substrate 1600 nm) of the same molecule?
**A.** Its value is 26.2%.

**Q.** And the Velocity (PhnO enzyme; AMPA substrate 1600 nm)?
**A.** Its Velocity is 426 nm per minute per mg of protei.

**Q.** What about the “% Turnover” value (PhnO enzyme; AMPA substrate 2000 nm) of the same molecule?
**A.** The value was 22.1%.

**Q.** What about the Velocity (PhnO enzyme; AMPA substrate 2000 nm) of the same molecule?
**A.** The Velocity was 442 nm per minute per mg of protei.

**Q.** What about the “% Turnover” value (PhnO enzyme; AMPA substrate 2400 nm) of the same molecule?
**A.** The value was 19.2%.

**Q.** What about the Velocity (PhnO enzyme; AMPA substrate 2400 nm) of the same molecule?
**A.** The Velocity was 461 nm per minute per mg of protei.

**Q.** And the “% Turnover” value (PhnO enzyme; AMPA substrate 2800 nm)?
**A.** Its value is 17.6%.

**Q.** What about the Velocity (PhnO enzyme; AMPA substrate 2800 nm) of the same molecule?
**A.** The Velocity was 493 nm per minute per mg of protei.

**Q.** And the “% Turnover” value (PhnO enzyme; AMPA substrate 3200 nm)?
**A.** The value was 17.3%.

**Q.** And the Velocity (PhnO enzyme; AMPA substrate 3200 nm)?
**A.** The Velocity was 554 nm per minute per mg of protei.

**Q.** What about the “% Turnover” value (PhnO enzyme; AMPA substrate 3600 nm) of the same molecule?
**A.** Its value is 14.5%.

**Q.** And the Velocity (PhnO enzyme; AMPA substrate 3600 nm)?
**A.** The Velocity was 522 nm per minute per mg of protei.

**Q.** What about the “% Turnover” value (PhnO enzyme; AMPA substrate 4000 nm) of the same molecule?
**A.** Its value is 13.6%.

**Q.** And the Velocity (PhnO enzyme; AMPA substrate 4000 nm)?
**A.** Its Velocity is 544 nm per minute per mg of protei.

**Q.** And the “% Turnover” value (PhnO enzyme; AMPA substrate 6000 nm)?
**A.** Its value is 12.7%.

**Q.** And the Velocity (PhnO enzyme; AMPA substrate 6000 nm)?
**A.** The Velocity was 762 nm per minute per mg of protei.

**Q.** And the “% Turnover” value (PhnO enzyme; AMPA substrate 7600 nm)?
**A.** The value was 10%.

**Q.** And the Velocity (PhnO enzyme; AMPA substrate 7600 nm)?
**A.** Its Velocity is 760 nm per minute per mg of protei.

**Q.** And the “apparent Vmax” value (PhnO enzyme; AMPA substrate, Lineweaver-Burk plot)?
**A.** Its value is “about 824 U/mg protein”.

**Q.** And the Km (PhnO enzyme; read-out: apparent Km of PhnO for AMPA as a substrate, Lineweaver-Burk plot of Table 8 data)?
**A.** Its Km is roughly 9 mM.

**Q.** And the “Harvest Density” value (E. coli GB993)?
**A.** The value was 185 Klett Units.

**Q.** Which results are given for N-phosphono-methyl-glycine [Glyphosate]?
**A.** female gametes left capable of fertilization (female gametes): 40-60%; % [^14C] metabolite in Glyphosate Treated Leaf Extract: AMPA ([1]; listed as [^14C]-Glyphosate): 3.2% and 5.7% and 3.0% and 4.8%; % [^14C] metabolite in Glyphosate Treated Leaf Extract: Glyphosate ([1]; listed as [^14C]-Glyphosate): 54.4% and 58.3% and 76.7% and 63.9%; % [^14C] metabolite in New Growth Extract: AMPA ([1]; listed as [^14C]-Glyphosate): 1.2% and 1.0% and 1.5%; % [^14C] metabolite in New Growth Extract: Glyphosate ([1]; listed as [^14C]-Glyphosate): 0.8% and 1.1% and 3.4%; % [^14C] metabolite in New Growth Extract: N-Acetyl-AMPA ([1]; listed as [^14C]-Glyphosate): 94.7% and 91.0% and 89.9% and 91.5%; % [^14C] metabolite in New Growth Extract: N-Acetyl-AMPA ([1]; listed as [^14C]-glyphosate): 90-95%; Acetyl-[^14C]-AMPA, of summed [^14C] peaks [2]: 2% and 0% and 0.2%; [^14C]-Glyphosate, of summed [^14C] peaks ([2]; same light exposure as plants): 48% and 87% and 60%; % [^14C] metabolite in Glyphosate Treated Leaf Extract: AMPA [3]: 2.1% and 2.0% and 1.6% and 2.2% and 2.5%; % [^14C] metabolite in Glyphosate Treated Leaf Extract: N-Acetyl-AMPA [3]: 27-74%; % [^14C] metabolite in New Growth Extract: AMPA [3]: 0.2% and 0.5% and 2.5%; % [^14C] metabolite in New Growth Extract: Glyphosate [3]: greater than 90%; % [^14C] metabolite in New Growth Extract: N-Acetyl AMPA [3]: greater than 90%; male gametes killed (male gametes): about 95%
